Legend:
[1] = tested on: normal rat; test: SPECT/CT imaging of a normal rat; type: in vivo; details: 300 μCi, SPECT/CT at 45 min
Procedure: (§1) To ascertain ^99mTc-EDA-ESM is a heart-specific agent, not tumor seeking agent, the inventors created a tumor model. Female Fischer 344 rats (125-175 g, n=5) were inoculated with breast cancer cells (13762NF, 10^6 cells/rat, s.c. in the hind leg). After 15-20 days and a tumor volume of […], the breast tumor-bearing rats were administered with 300 μCi of ^99mTc-EDA-ESM. Scintigraphic images, using a gamma camera equipped with low-energy, parallel-hole collimator, were obtained from 15 to 45 min. In separate studies, normal Female Fischer 344 rats ([…], n=5) were administered with 300 μCi of ^99mTc-EDA-ESM and scintigraphic images were obtained at 30-180 min. One rat was administered with 300 μCi of ^99mTc-EDA-ESM and SPECT/CT was performed at 45 min. […] In normal rats administered with ^99mTc-EDA-ESM (n=5), heart to muscle ([…]) count density uptake ratios were increased (2.7 to 5.1) at 30-180 min (FIG. 11).

[2] = tested on: breast tumor-bearing rats; test: Planar scintigraphic imaging in breast tumor-bearing rats; type: in vivo, Female Fischer 344 rats
Procedure: as §1

[3] = breast tumor-bearing rats (13762NF), 300 μCi, planar scintigraphy 15 to 45 min

CC(C)NCC(O)COc1ccc(CCC(=O)[N]2CC[NH][Tc]23(=[O])[NH]CC[N]3C(=O)CCc2ccc(OCC(O)CNC(C)C)cc2)cc1 (centres unmarked) [^99mTc-EDA-ESM, ^99mTc-Ethylenediamine-esmolol]
heart uptake (SPECT/CT) [1]: high heart uptake
heart uptake [2, 3]: high uptake
tumor visualization [2, 3]: could not be visualized well
cardiac region count/pixels ratio (line profile curve) ([2]; breast tumor-bearing rats, 300 μCi/rat, 15-45 minutes, compared to laterally located tissues): high cardiac region count/pixels ratio
Heart to muscle (H/M) count density uptake ratios ([2]; tumor-bearing rats (n=4), 300 μCi IV, sacrificed at 2 hrs, compared with heart/other tissue ratios): higher than other tissues

— patent publication US8440168B2, “Image-guided therapy of myocardial disease: composition, manufacturing and applications” (The Board of Regents of the University of Texas System, priority 2008, dated 2013)
